{"source": "patent US5075296A", "about": "“Azacyclooctadiene compound and pharmaceutical use” (Eisai Co., Ltd., priority 1989, dated 1991)", "key": {"KB cells": {"system": "KB cells", "assay": "antitumor activity in vitro with cultured KB cells (growth inhibition, Coulter counter)", "assay_type": "cell-based, human", "conditions": "four days, 37° C., MEM - 10% calf serum; for IC50: Homo sapiens, KB, 96 h, read-out: ED50 (concentration at which the growth inhibition was substantially 50% based on the control); for ED50 (concentration at which the growth inhibition was substantially 50% based on the control): 5760 min", "procedure": "The antitumor activity of the compounds of the present invention was determined in vitro with cultured KB cells.\nThe experiment was conducted by using KB derived from a human epidermoid carcinoma of the mouth and Eagle's minimal essential medium (MEM) - 10% calf serum at 37° C. in a carbon dioxide incubator (5% CO2).\nKB cells were diluted at a dilution rate of 1×10^4 /ml medium. 2 ml of the sample thus formed was placed in a 30-mm plastic dish so that the final concentration of the compounds of the present invention would be 100, 30, 10, 3 or 1 μg/ml. After four days, the cells were peeled from the dish surface with trypsin and the number of the cells was counted with a Coulter counter.\nThe criterion according to NCI (U.S.A.) was employed to determine the concentration (ED50) at which the growth inhibition was substantially 50% based on the control."}, "S-180 salcoma cells": {"system": "S-180 salcoma cells", "assay": "antitumor activity in ICR mice inoculated with S-180 salcoma cells (increase in life-span)", "assay_type": "in vivo, mouse (female ICR mice)", "conditions": "intra-peritoneal, once a day Day 1 to 5; for Number of surviving mice: observation period 52 days, saline control 0/12, DMSO 0/7; for Prolongation extent of life: saline control 0, DMSO -11; for Average days of the prolongation of life: saline control 13.3 ± 3.7, DMSO 12.0 ± 3.0", "procedure": "Female ICR mice being 6 weeks old were inoculated abdominally with 0.2 ml of a sample of cell suspension in PBS containing 5×10^5 S-180 salcoma cells, on Day 0. Once a day for 5 days (Day 1 to 5) from the next day, they were inoculated abdominally with the above shown compounds of A-IV-b, B-VI-6 and D-I-a, respectively, dispersed in 6 wt. % dimethylsulfoxide solution, with intra-peritoneal injection of 25 or 50 mg/kg. A saline and a solvent were used for reference control. 12 to 7 mice were used in the saline control and the drug test, respectively. Antitumor activity was determined by the mean survival time (prolongation of life) of the test group (T) with that of the control group (C) and is shown in terms of an increase in life-span (prolongation extent of life), that is, ((T/C)×100%). The observation period was 52 days and survivors were excluded from calculation."}}}
{"smiles": "COc1cc2c(c(OC)c1OC)-c1cc3c(cc1CC(CO)N(C=O)C2)OCO3", "note": "(stereo not shown) [A-VII-a]", "values": [{"measurement": "IC50", "setting": "KB cells", "value": "< 0.3", "unit": "µg/mL"}]}
{"smiles": "COc1cc(C2c3cc4c(cc3C(N)C3COC(=O)N23)OCO4)cc(OC)c1OC", "note": "[D-XI-b]", "values": [{"measurement": "IC50", "setting": "KB cells", "value": "< 0.3", "unit": "µg/mL"}]}
{"smiles": "COc1cc(C2c3cc4c(cc3C(N=[N+]=[N-])C3COC(=O)N23)OCO4)cc(OC)c1OC", "note": "[D-X-b]", "values": [{"measurement": "ED50 (concentration at which the growth inhibition was substantially 50% based on the control)", "setting": "KB cells", "value": "< 0.3", "unit": "µg/mL"}]}
{"smiles": "COc1cc2c(c(OC)c1OC)-c1cc3c(cc1CC1COC(=O)N1C2)OCO3", "note": "(stereo not shown) [A-IV-b]", "values": [{"measurement": "ED50 (concentration at which the growth inhibition was substantially 50% based on the control)", "setting": "KB cells", "value": "< 0.3", "unit": "µg/mL"}, {"measurement": "Number of surviving mice", "setting": "S-180 salcoma cells; 25 mg/kg", "value": "0/7"}, {"measurement": "Prolongation extent of life", "setting": "S-180 salcoma cells; 25 mg/kg", "value": -4, "unit": "%"}, {"measurement": "Average days of the prolongation of life", "setting": "S-180 salcoma cells; 25 mg/kg", "value": "12.9 ± 2.3", "unit": "days"}, {"measurement": "Number of surviving mice", "setting": "S-180 salcoma cells; 50 mg/kg", "value": "0/7"}, {"measurement": "Prolongation extent of life", "setting": "S-180 salcoma cells; 50 mg/kg", "value": 40, "unit": "%"}, {"measurement": "Average days of the prolongation of life", "setting": "S-180 salcoma cells; 50 mg/kg", "value": "19.0 ± 5.5", "unit": "days"}]}
{"smiles": "COc1cc2c(c(OC)c1O)-c1cc3c(cc1CC1COC(=O)N1C2)OCO3", "note": "(stereo not shown) [A-IX-a]", "values": [{"measurement": "IC50", "setting": "KB cells", "value": 50, "unit": "µg/mL"}]}
{"smiles": "COc1c(O)cc2c(c1OC)-c1cc3c(cc1CC1COC(=O)N1C2)OCO3", "note": "(stereo not shown) [A-VIII-a]", "values": [{"measurement": "IC50", "setting": "KB cells", "value": 17, "unit": "µg/mL"}]}
{"smiles": "COc1cc2c(c(OC)c1OC)-c1cc3c(cc1CC1CNC(=O)N1C2)OCO3", "note": "(stereo not shown) [B-VI-b]", "values": [{"measurement": "IC50", "setting": "KB cells", "value": "< 0.3", "unit": "µg/mL"}, {"measurement": "Number of surviving mice", "setting": "S-180 salcoma cells; 25 mg/kg", "value": "2/7"}, {"measurement": "Prolongation extent of life", "setting": "S-180 salcoma cells; 25 mg/kg", "value": 50, "unit": "%"}, {"measurement": "Average days of the prolongation of life", "setting": "S-180 salcoma cells; 25 mg/kg", "value": "20.2 ± 4.2", "unit": "days"}, {"measurement": "Number of surviving mice", "setting": "S-180 salcoma cells; 50 mg/kg", "value": "0/7"}, {"measurement": "Prolongation extent of life", "setting": "S-180 salcoma cells; 50 mg/kg", "value": 120, "unit": "%"}, {"measurement": "Average days of the prolongation of life", "setting": "S-180 salcoma cells; 50 mg/kg", "value": "29.7 ± 3.9", "unit": "days"}]}
{"smiles": "COc1cc2c(c(OC)c1OC)-c1cc3c(cc1CC(CO)N(C)C2)OCO3", "note": "(stereo not shown) [A-V-b]", "values": [{"measurement": "ED50 (concentration at which the growth inhibition was substantially 50% based on the control)", "setting": "KB cells", "value": 1.1, "unit": "µg/mL"}]}
{"smiles": "COc1cc2c(c(OC)c1OC)-c1cc3c(cc1CC1CN(CC(=O)O)C(=O)N1C2)OCO3", "note": "(stereo not shown) [B-VIII-b]", "values": [{"measurement": "IC50", "setting": "KB cells", "value": 5.4, "unit": "µg/mL"}]}
{"smiles": "COc1cc(CN2C(=O)OCC2Cc2ccc3c(c2)OCO3)cc(OC)c1OC", "note": "(stereo not shown) [A-III]", "values": [{"measurement": "IC50", "setting": "KB cells", "value": 35, "unit": "µg/mL"}]}
{"smiles": "COc1cc(C2c3cc4c(cc3C(N=[N+]=[N-])C3COC(=O)N23)OCO4)cc(OC)c1OC", "note": "[D-X-a]", "values": [{"measurement": "ED50 (concentration at which the growth inhibition was substantially 50% based on the control)", "setting": "KB cells", "value": 0.68, "unit": "µg/mL"}]}
{"smiles": "COc1cc2c(c(OC)c1OC)-c1cc3c(cc1CC(CO)N(C)C2)OCO3", "note": "(stereo not shown) [A-V-a]", "values": [{"measurement": "IC50", "setting": "KB cells", "value": 1.5, "unit": "µg/mL"}]}
{"smiles": "COc1cc(CN2C(=O)NCC2Cc2ccc3c(c2)OCO3)cc(OC)c1OC", "note": "(stereo not shown) [B-V]", "values": [{"measurement": "IC50", "setting": "KB cells", "value": 47, "unit": "µg/mL"}]}
{"smiles": "COc1cc2c(c(OC)c1OC)-c1cc3c(cc1CC1CN(CC(=O)OC(C)(C)C)C(=O)N1C2)OCO3", "note": "(stereo not shown) [B-VII-b]", "values": [{"measurement": "IC50", "setting": "KB cells", "value": 1.7, "unit": "µg/mL"}]}
{"smiles": "COc1cc(C2c3cc4c(cc3CC3COC(=O)N32)OCO4)cc(OC)c1OC", "note": "[D-I-a]", "values": [{"measurement": "Number of surviving mice", "setting": "S-180 salcoma cells; 25 mg/kg", "value": "0/7"}, {"measurement": "Prolongation extent of life", "setting": "S-180 salcoma cells; 25 mg/kg", "value": 62, "unit": "%"}, {"measurement": "Average days of the prolongation of life", "setting": "S-180 salcoma cells; 25 mg/kg", "value": "21.9 ± 4.0", "unit": "days"}, {"measurement": "Number of surviving mice", "setting": "S-180 salcoma cells; 50 mg/kg", "value": "0/7"}, {"measurement": "Prolongation extent of life", "setting": "S-180 salcoma cells; 50 mg/kg", "value": 48, "unit": "%"}, {"measurement": "Average days of the prolongation of life", "setting": "S-180 salcoma cells; 50 mg/kg", "value": "20.0 ± 5.6", "unit": "days"}]}
{"smiles": "COc1cc2c(c(OC)c1OC)-c1cc3c(cc1CC1COC(=O)N1C2)OCO3", "note": "(stereo not shown) [A-IV-a]", "values": [{"measurement": "ED50 (concentration at which the growth inhibition was substantially 50% based on the control)", "setting": "KB cells", "value": 47.0, "unit": "µg/mL"}]}
{"smiles": "COc1cc2c(c(OC)c1OC)-c1cc3c(cc1CC(COC(C)=O)N(C)C2)OCO3", "note": "(stereo not shown) [A-VI-a]", "values": [{"measurement": "IC50", "setting": "KB cells", "value": 1.65, "unit": "µg/mL"}]}
